# Assay results: patent US4293489A, “Derivatives of A-30912A nucleus” (Eli Lilly and Company, priority 1980, dated 1981)
# Like-named read-outs stand apart in the source and are kept apart here. Starred links: 1 amine or outer side, 2 acyl side, 3 side chain; linkers in the order of their positions; H or OH if unused. Positions of bridges follow the written chain, without caps; N, C: chain ends. Non-standard residues stand in square brackets, D forms with d. Residues, ends and D or L forms follow the SMILES beside them. *: point of attachment. Orn(4R-OH,5R-OH) = O=C([C@H](C[C@@H](O)[C@@H](O)N[*:3])N[*:1])[*:2]; hTyr(3S-OH,4S-OH) = N[C@H](C(=O)O)[C@H](O)[C@@H](O)c1ccc(O)cc1; Pro(3S-OH,4S-Me) = C[C@H]1CN[C@H](C(=O)O)[C@H]1O; Benzoyl(4-octyloxy) = CCCCCCCCOc1ccc(C(=O)*)cc1; X5 = CCCCCCCCCCCCS(=O)(=O)c1ccc(C(=O)*)cc1; X3 = CCCCCCCCCCCCCCSc1ccc(C(=O)*)cc1; X1 = CCCCCCCCCCCCSc1ccc(C(=O)*)cc1; Hyp = O=C(O)[C@@H]1C[C@@H](O)CN1; X8 = CCCCCCCCCOc1ccc(C(=O)*)cc1
# Columns and labels:
# Candida albicans SBH29 = assay: Agar dilution method, MIC; assay type: cell-based
# Description: (§1) Tables 10 and 11 give the results of the testing in vitro of the compounds of Examples 3 and 4 by agar-plate disc-diffusion methods. In Table 10 activity is measured by the size (diameter in mm) of the observed zone of inhibition of the microorganism produced by the test compound. In Table 11, activity is measured by the minimal inhibitory concentration (MIC) of the substance (μg/disc) required to inhibit growth of the test organism. Table 12 gives the results of the testing in vitro of the p-(n-octyloxy)benzoyl derivative of A30912A nucleus [Formula III, R^1 is p-(n-octyloxy)benzoyl] against five strains of Candida albicans by the agar dilution method. In Table 12 activity is measured by the minimal inhibitory concentration (MIC) of the substance (μg/ml) required to inhibit the test organism.
# Candida albicans SBH31 = assay: Agar dilution method, MIC; assay type: cell-based
# Description: as §1
# Candida albicans A-26 [1] = assay: Agar dilution method, MIC; assay type: cell-based
# Description: as §1
# Candida albicans SBH16 = assay: Agar dilution method, MIC; assay type: cell-based
# Description: as §1
# Candida albicans SBH28 = assay: Agar dilution method, MIC; assay type: cell-based
# Description: as §1
# [2] = Blood levels after oral administration in mice; conditions: mouse, 416 mg/kg
# Description: (§6) In this test, mice are gavaged with a dose of 416 mg/kg of the test compound suspended in 33% PEG 400-water. At time intervals, blood samples are taken from the orbital sinus and are assayed for antibiotic activity as follows: A 7 mm. disc containing 20 μl of whole blood is placed on agar seeded with Aspergillus montevidensis A35137. After 40 hours incubation at 30° C. zones of inhibition from the blood samples are compared to a standard obtained from the test compound, and the amount of compound in the blood sample is calculated.
# pathogenic fungi = assay: Antifungal activity, standard biological test procedures; assay type: cell-based; conditions: cyclic nucleus lacking the linoleoyl side chain
# Description: The compounds of Formula III inhibit the growth of pathogenic fungi as evidenced by standard biological test procedures. The compounds are useful, therefore, for controlling the growth of fungi on environmental surfaces (as an antiseptic) or in treating infections caused by fungi. […] Thus, the compounds are particularly useful in treating infections caused by strains of C. albicans (candidosis). The compounds of Formula III have also shown activity in vitro in agar-plate disc diffusion tests against Trichophyton mentagrophytes, a dermatophytic organism. Activity has also been found in in vitro agar-plate disc-diffusion tests against Saccharomyces pastorianus, and Neurospora crassa. Certain compounds (as shown in Example 6, Table 9) give significant blood levels upon oral administration in mice.
# Neurospora crassa 846 = assay: Agar plate disc diffusion test, zone of inhibition; assay type: cell-based; conditions: Neurospora crassa, 846; 1 mg/ml suspension in methanol, 7mm disc; 24-48 hours at 25-37° C.; read-out: Size of Zone of Inhibition
# Description: as §1
# (§2) ^(a) Compounds were tested as suspension in methanol. The compounds
# (§3) were tested at a concentration of 1 mg/ml. by dipping a 7mm disc into the
# (§4) suspension and placing it on the agar surface. Incubation: 24-48 hours at
# (§5) *Measurable zone of inhibition with regrowth of organism around disc.
# Candida albicans A-26 [3] = assay: Agar plate disc diffusion test, zone of inhibition; assay type: cell-based; conditions: 1 mg/ml suspension in methanol, 7mm disc; 24-48 hours at 25-37° C.
# Description: as §1, §2, §3, §4, §5
# [4] = test system: Trichophyton mentagraphytes A-23; assay: Agar plate disc diffusion test, zone of inhibition; assay type: cell-based, Trichophyton mentagrophytes; conditions: A23, 1 mg/ml suspension in methanol, 7mm disc, 24-48 hours at 25-37° C., read-out: Size of Zone of Inhibition
# Description: as §1, §2, §3, §4, §5
# in vivo = conditions: mouse, po, 416 mg/kg
# Description: as §6
smiles,measurement,setting,value
"CCCCCCCCCCCCCCSc1ccc(C(=O)N[C@H]2C[C@@H](O)[C@@H](O)NC(=O)[C@@H]3[C@@H](O)[C@@H](C)CN3C(=O)[C@H]([C@@H](C)O)NC(=O)[C@H]([C@H](O)[C@@H](O)c3ccc(O)cc3)NC(=O)[C@@H]3C[C@@H](O)CN3C(=O)[C@H]([C@@H](C)O)NC2=O)cc1 [drawing 150] (X3-[Orn(4R-OH,5R-OH)]T[Hyp][hTyr(3S-OH,4S-OH)]T[Pro(3S-OH,4S-Me)]; lactam 1-C)",MIC,"Candida albicans SBH29; strain SBH29, agar dilution, read-out: MIC",2.5 µg/mL
same,MIC,"Candida albicans SBH31; strain SBH31, agar dilution, read-out: MIC",2.5 µg/mL
same,MIC,"Candida albicans A-26 [1]; A26, strain A-26, agar dilution, read-out: MIC",2.5 µg/mL
same,MIC,"Candida albicans SBH16; strain SBH16, agar dilution, read-out: MIC",2.5 µg/mL
same,MIC,"Candida albicans SBH28; strain SBH28, agar dilution, read-out: MIC",2.5 µg/mL
"CCCCCCCCCCCCSc1ccc(C(=O)N[C@H]2C[C@@H](O)[C@@H](O)NC(=O)[C@@H]3[C@@H](O)[C@@H](C)CN3C(=O)[C@H]([C@@H](C)O)NC(=O)[C@H]([C@H](O)[C@@H](O)c3ccc(O)cc3)NC(=O)[C@@H]3C[C@@H](O)CN3C(=O)[C@H]([C@@H](C)O)NC2=O)cc1 [drawing 149] (X1-[Orn(4R-OH,5R-OH)]T[Hyp][hTyr(3S-OH,4S-OH)]T[Pro(3S-OH,4S-Me)]; lactam 1-C)",MIC,Candida albicans SBH29; SBH29,0.625 µg/mL
same,MIC,Candida albicans SBH31; SBH31,0.625 µg/mL
same,MIC,Candida albicans A-26 [1]; A26,0.625 µg/mL
same,MIC,Candida albicans SBH16; SBH16,0.625 µg/mL
same,MIC,Candida albicans SBH28; SBH28,0.625 µg/mL
"CCCCCCCCOc1ccc(C(=O)N[C@H]2C[C@@H](O)[C@@H](O)NC(=O)[C@@H]3[C@@H](O)[C@@H](C)CN3C(=O)[C@H]([C@@H](C)O)NC(=O)[C@H]([C@H](O)[C@@H](O)c3ccc(O)cc3)NC(=O)[C@@H]3C[C@@H](O)CN3C(=O)[C@H]([C@@H](C)O)NC2=O)cc1 [drawing 181] ({Benzoyl(4-octyloxy)}-[Orn(4R-OH,5R-OH)]T[Hyp][hTyr(3S-OH,4S-OH)]T[Pro(3S-OH,4S-Me)]; lactam 1-C)",Cmax,[2],23000 ng/mL
"C[C@@H](O)[C@@H]1NC(=O)[C@H]([C@H](O)[C@@H](O)c2ccc(O)cc2)NC(=O)[C@@H]2C[C@@H](O)CN2C(=O)[C@H]([C@@H](C)O)NC(=O)[C@@H](N)C[C@@H](O)[C@@H](O)NC(=O)[C@@H]2[C@@H](O)[C@@H](C)CN2C1=O [A-30912A nucleus] (H-[Orn(4R-OH,5R-OH)]T[Hyp][hTyr(3S-OH,4S-OH)]T[Pro(3S-OH,4S-Me)]; lactam 1-C)",antifungal activity,pathogenic fungi,substantially devoid of antifungal activity
"CCCCCCCCCCCCS(=O)(=O)c1ccc(C(=O)N[C@H]2C[C@@H](O)[C@@H](O)NC(=O)[C@@H]3[C@@H](O)[C@@H](C)CN3C(=O)[C@H]([C@@H](C)O)NC(=O)[C@H]([C@H](O)[C@@H](O)c3ccc(O)cc3)NC(=O)[C@@H]3C[C@@H](O)CN3C(=O)[C@H]([C@@H](C)O)NC2=O)cc1 [drawing 113] (X5-[Orn(4R-OH,5R-OH)]T[Hyp][hTyr(3S-OH,4S-OH)]T[Pro(3S-OH,4S-Me)]; lactam 1-C)",zone of inhibition at 1000 µg/mL,Neurospora crassa 846,37 mm
same,Size of Zone of Inhibition,Candida albicans A-26 [3],48 mm
same,zone of inhibition at 1000 µg/mL,[4],26 mm
"CCCCCCCCCOc1ccc(C(=O)N[C@H]2C[C@@H](O)[C@@H](O)NC(=O)[C@@H]3[C@@H](O)[C@@H](C)CN3C(=O)[C@H]([C@@H](C)O)NC(=O)[C@H]([C@H](O)[C@@H](O)c3ccc(O)cc3)NC(=O)[C@@H]3C[C@@H](O)CN3C(=O)[C@H]([C@@H](C)O)NC2=O)cc1 (X8-[Orn(4R-OH,5R-OH)]T[Hyp][hTyr(3S-OH,4S-OH)]T[Pro(3S-OH,4S-Me)]; lactam 1-C)",MIC,Candida albicans SBH29; SBH29,0.312 µg/mL
same,MIC,Candida albicans SBH31; SBH31,0.312 µg/mL
same,MIC,Candida albicans A-26 [1]; A26,0.312 µg/mL
same,MIC,Candida albicans SBH16; SBH16,0.312 µg/mL
same,MIC,Candida albicans SBH28; SBH28,0.312 µg/mL
"CCCCCCCCCCCCSc1ccc(C(=O)N[C@H]2C[C@@H](O)[C@@H](O)NC(=O)[C@@H]3[C@@H](O)[C@@H](C)CN3C(=O)[C@H]([C@@H](C)O)NC(=O)[C@H]([C@H](O)[C@@H](O)c3ccc(O)cc3)NC(=O)[C@@H]3C[C@@H](O)CN3C(=O)[C@H]([C@@H](C)O)NC2=O)cc1 [drawing 187] (X1-[Orn(4R-OH,5R-OH)]T[Hyp][hTyr(3S-OH,4S-OH)]T[Pro(3S-OH,4S-Me)]; lactam 1-C)",Cmax,in vivo,30000 ng/mL
